We go through six compounds from publication PMC5111108, “An insecticide resistance-breaking mosquitocide targeting inward rectifier potassium channels in vectors of Zika virus and malaria” (Scientific Reports, 2016).

In one data set the test system is honey bee, A. mellifera. Description: Acute topical toxicity to adult honey bees. The data set is classed as in vivo, Apis mellifera. The following applies: bifenthrin positive control, 0.3 μg per bee (0.1 μg/bee) topical, 48 h. The procedure:
Frames of late-stage honey bee (A. mellifera) pupae were taken from four colonies at The Ohio State University Honey Bee Lab in Wooster, OH and maintained in a dark humid incubator at 34 °C (Darwin Chambers Co., St. Louis, MO, model H024) until adult bees emerged. New adults were brushed from frames daily and placed in wooden screen cages (21 × 14 × 12 cm) provisioned with 1:1 (w/w) sucrose in water.
Acute toxicity experiments in adult bees were performed as follows. Twenty-four hours after emergence, adult honey bees in cages were anaesthetized with carbon dioxide, divided into groups of approximately 20 bees and placed in plastic-coated paper cups (177 cm^3; UNIQ Paper Yogurt Cup, Frozen Dessert Supplies, Gilbert, AZ) covered with cotton cheesecloth. […] As a positive control, some bees were treated with 3 μl of bifenthrin (0.1 μg/μl); negative controls consisted of bees treated with 3 μl of solvent. Applications were made using a 20 μl micropipette (Fisherbrand Finnpipette F2, Fisher Scientific, Pittsburgh, PA) with disposable plastic tips. After treatment, bees were returned to the paper cups and provided with sugar syrup in punctured 1.5 ml microcentrifuge tubes. […] Bees showing no movement on inspection at 48 h after treatment were scored as dead.

The target in another data set is T1, AnKir1 (Anopheles gambiae, UniProt A0A075M2J8).
T1 sequence (A0A075M2J8 1-555): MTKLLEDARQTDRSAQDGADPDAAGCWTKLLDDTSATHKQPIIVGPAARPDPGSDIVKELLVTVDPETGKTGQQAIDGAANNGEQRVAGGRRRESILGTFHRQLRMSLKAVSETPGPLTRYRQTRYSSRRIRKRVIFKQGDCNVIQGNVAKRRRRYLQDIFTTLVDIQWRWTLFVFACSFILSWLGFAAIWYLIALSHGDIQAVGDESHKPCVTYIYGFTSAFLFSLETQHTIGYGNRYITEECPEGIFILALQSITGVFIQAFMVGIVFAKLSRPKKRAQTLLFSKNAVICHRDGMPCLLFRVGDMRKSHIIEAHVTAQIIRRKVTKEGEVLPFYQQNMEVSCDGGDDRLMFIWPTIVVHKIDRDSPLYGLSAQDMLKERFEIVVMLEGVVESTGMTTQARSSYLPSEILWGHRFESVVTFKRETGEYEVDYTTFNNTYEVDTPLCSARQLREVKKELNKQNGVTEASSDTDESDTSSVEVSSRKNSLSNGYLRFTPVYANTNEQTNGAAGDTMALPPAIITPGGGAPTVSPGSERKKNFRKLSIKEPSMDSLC
Nature of the data set: Tl+ flux assay in T-REx-HEK293 cells expressing AnKir1. Conditions: Tl+ flux; for IC50: Tables S2/S3 and supplemental text, read-out: AnKir1 IC50. The data set is classed as cell-based. The procedure:
Tl^+ flux assays were performed essentially as described previously. Briefly, stably transfected T-Rex-HEK-293 cells expressing AnKir1 channels were cultured overnight in 384-well plates (20,000 cells/20 μL/well black-walled, clear-bottomed BD PureCoat amine-coated plates (BD, Bedford, MA) with a plating media containing DMEM, 10% dialyzed FBS and 1 μg/mL tetracycline. Approximately twenty-four hours after cell plating, the cell culture medium was replaced with a dye-loading solution containing assay buffer (Hanks Balanced Salt Solution with 20 mM HEPES, pH 7.3), 0.01% (w/v) Pluronic F-127 (Life Technologies, Carlsbad, CA), and 1.2 μM of the thallium-sensitive dye Thallos-AM (TEFlabs, Austin, TX). Following 1 hr incubation at room temperature, the dye-loading solution was washed from the plates and replaced with 20 μL/well of assay buffer.
Tl+ flux assay development
Tl+ flux assays were performed essentiall y as described previousl y (1). Briefl y, stabl y transfect ed T-Rex -HEK- 293- AnKir1 cells were cultured overnight in 384-well plates in media containing DMEM, 10% dial yz ed FBS and 1μg/ m L tetrac ycline to induce channel expression
(Fig. S1A). The next day, the cell culture medium was replaced with a dye-loading solution containing assay buffer (Hanks Balanced Salt Solution with 20 mM HEPES, pH 7.3), 0.01% (w/v) Pluronic F-127 (Li fe Technologies, Carlsbad, CA), and 1.2 μM of the thallium-sensitive dye Thallos-AM (TEFl abs, Austin, TX). Following 1 hr incubation at room temperature, the d ye-loading solution was washed from the plates and replaced with 20 μ L/well of assa y buffer. The plates were transferred t o a Ham amatsu Functional Drug Screening System 6000 (FDSS6000; Hamamatsu, Tokyo, J apan) where 20 μ L/well of test compounds in assay buffer (as prepared below) were added and allowed to incubate with the cells for 20 min. After the incubation period, a baseline recordi ng was collected at 1 Hz for 10 s (excitation 470 ± 20 nm, emission 540 ± 30 nm) followed by a t hallium stimulus buffer addition (10 μL/well) and data collection for an additional 4 min. The Tl + stimulus buffer contains in (mM) 125 NaHCO3, 1.8 CaSO4, 1 MgSO4, 5 glucose, 12 Tl2SO4, 10 HEPES, pH 7.4. For Tl + flux assays on Kir2.x, Kir4.1 and Kir6.2/SUR1 ex pressing cells, the Tl+ stimulus buffer contained 1.8 mM Tl 2SO4. To ensure the small-molecule vehicle DMSO had no direct effect on An Ki r1-dependent Tl+ flux, the assa y’s tolerance to different doses of DMSO was evaluated (Fig. S1B). The robustness and reproducibility of the assay was determined by comparing Tl+ flux through tetracycline-induced and tetracycline-uninduced cells (Fig. S1C). The Z’ value was calculated as described previously (1 ), using the […]
Z’ = 1- (3SD p + 3SD n)/ |meanp + meann | where SD is standard deviation, p and n are control and uninduced flux values respectivel y.
To compare the effect of DMSO on An Kir1-mediated Tl+ flux, a one-way ANOVA was performed with a Tuke y’s multiple comparison test. Prism software (GraphPad Software) was used to generate CRC from Tl+ fl ux ..Half-inhibition concentration (IC50) values were calculated from fits using a four parameter logistic equation.
High-throughput screeni ng
The test compounds were transferred to daughter pol yprop ylene 384-well plates (G reiner Bio-One, Monroe, NC) using an Echo555 liquid handler (Labcyte, Sunnyvale, CA), and then diluted into assay buffer to generat e a 2X stock in 0.6% DMSO (0.3% final). For Tl+ flux assays on Kir6.2/SUR1 expressing cells, test compounds were diluted in assay buffer containing diazoxide (250 μM final) to induce channel activation. Concentration- response curves (CRCs) were gener ated b y screening compounds at 3-fold dilution series (1 nM - 30 μM).
Tl+ flux data were anal yzed as previousl y d escri bed (2, 3) using a combination of Excel (Microsoft Corp, Redmond, WA) with XLfit add-in (IDBS, Guildford, Surre y, UK), Ori ginPro […]

In the next data set the test system is An. gambiae G3 strain. Set-up: method as in PMID 26047119. Conditions: topical, (95% confidence limits); cited from earlier work.
The subject of another data set is An. gambiae Akron strain. Conditions: topical, (95% confidence limits); cited from earlier work.
For the next data set, the system named is mosquito Kir1 channels. Set-up: method as in PMID 24959745. The following applies: read-out: IC50 against mosquito Kir1 channels in vitro; cited from earlier work.
The subject of the next data set is mosquitoes. Also noted: method as in PMID 24959745. Conditions: cited from earlier work.

As to `Cc1c(COC(=O)[C@@H]2[C@H](/C=C(\Cl)C(F)(F)F)C2(C)C)cccc1-c1ccccc1` (racemic) [bifenthrin, reference compound], in the data set with honey bee, A. mellifera, the “honey bees dead (mortality)” value came out at 100%.
As usually defined, the IC50 is the midpoint of a concentration-inhibition curve. Turning to `O=C(CN1CCCc2ccccc21)N1CCCc2ccccc21` [Compound 6], the IC50 at AnKir1 stood at 8 µM.
Turning to `O=C(Cn1nc(C(F)(F)F)c2c1CCCC2)N1CCc2ccccc2C1` [Compound 8], on AnKir1, the “loss of potency vs VU041 (AnKir1)” value is recorded as ~ 7 fold and the IC50 is 15 µM.
For the compound `O=C(Cn1nc(C(F)(F)F)c2c1CCCC2)N1CCOc2ccccc21` [Compound 14], the IC50 on AnKir1 was 4.6 µM.
`CC1(C)C(C=C(Cl)Cl)C1C(=O)OCc1cccc(Oc2ccccc2)c1` (stereo not drawn) [Permethrin]: in the data set with An. gambiae G3 strain, the “ED50, G3 Strain” value is recorded as 0.03e-5 (0.02e-5–0.05e-5) μg/mg. For the same compound, the “ED50, Akron Strain” value in the data set with An. gambiae Akron strain is 1.0e-3 (0.8e-4–1.3e-3) μg/mg.
Take `CCC(=O)N1c2ccc(S(=O)(=O)Nc3cccc(OC)c3)cc2CC1C` (stereo not drawn) [VU625]: in the data set with mosquito Kir1 channels, the IC50 is about 0.1 µM. Further, in the data set with mosquitoes, the “topical toxicity to mosquitoes” value is recorded as “not topically toxic to mosquitoes”.
